Data reported in patent US20130123494A1, “COMPLEX COMPOUND AND OPTICAL RECORDING MEDIUM CONTAINING SAME” (KH NEOCHEM CO., LTD., priority 2010, published 2013).

How the values were obtained:
Format in all cases: physicochemical
[1] = Moisture- and heat-resistances test of thin films; settings: thin film, 80° C., relative humidity 80%, 100 hours
Description: Similarly to the film-forming test, thin films of Complex Compounds (2) to (5), (7), (9) to (11), (13) to (21), (24), (26), (28), (30), (31), and (33) were respectively obtained. Using a constant temperature and humidity chamber, KHWII-40HP, manufactured by Satake Chemical Equipment Mfg Ltd., the thin films were exposed in the atmosphere having a temperature of 80° C. and a relative humidity of 80% for 100 hours. Ultraviolet-visible absorption spectra of the thin films before and after the moisture- and heat-resistances test were measured using a spectrophotometer. […] Here, the absorption maximum wavelength after the moisture- and heat-resistances test denotes the absorption maximum wavelength in an absorption spectrum after the moisture- and heat-resistances test.

[2] = Test of storage stability in solution; settings: 13 mg in 1 mL TFP, brown bottle, 25° C., 3 days; 1250-fold diluted for measurement
Description: Each of 13 mg of Complex Compounds (2) to (5), (7), (9) to (11), (13) to (21), (24), (26), (28), (30), (31), and (33) was dissolved in 1 mL of TFP, which was filtered with a filter made of TEFLON (registered trademark) (manufactured by Whatman, having a pore diameter of 0.20 μm), and solutions of Complex Compounds (2) to (5), (7), (9) to (11), (13) to (21), (24), (26), (28), (30), (31), and (33) were respectively obtained. Each of the obtained solutions was transferred to a brown bottle with a lid and stored at 25° C. for 3 days. Before and after the storage stability test, using a spectrophotometer, 1250-fold diluted solutions of Complex Compounds (2) to (5), (7), (9) to (11), (13) to (21), (24), (26), (28), (30), (31), and (33), respectively, were measured for their ultraviolet-visible absorption spectra. […] Here, the absorption maximum wavelength after the storage stability test is the absorption maximum wavelength in the absorption spectrum after the storage stability test.

[3] = Lightfastness test of thin films; settings: thin film on glass plate, UV fluorescent lamps 15 W/m^2, 45° C., 10 hours
Excerpt: Thin films of Complex Compounds (2) to (5), (7), (9) to (11), (13) to (21), (24), (26), (28), (30), (31), and (33) were respectively obtained similarly to the film-forming test except that a glass plate (manufactured by Taiyu Kizai Co., Ltd.; 2 cm×2 cm; thickness: 2 mm) was used as the substrates instead of the plate made of polycarbonate resin. Using a dewpanel light control weather meter DPWL-5R, manufactured by Suga Test Instruments Co., Ltd., which was equipped with ultraviolet fluorescent lamps (SUGA-FS40, manufactured by Suga Test Instruments Co., Ltd., having a peak wavelength of 313 nm and an illuminance distribution of 282 nm to 373 nm), light was irradiated on the thin films with an amount of light of 15 W/m^2 at 45° C. for 10 hours. Ultraviolet-visible absorption spectra of the thin film before and after the lightfastness test were measured using a spectrophotometer.
Here, the absorption maximum wavelength after lightfastness test denotes an absorption maximum wavelength in the absorption spectrum after the lightfastness test.

Structure (SMILES)	I^b/I^b0 (absorbance ratio at absorption maximum after/before moisture- and heat-resistances test) [1]	Δλmax(b) (change in absorption maximum wavelength) [1] [nm]	I^c/I^c0 (absorbance ratio at absorption maximum after/before storage stability test) [2]	Δλmax(c) (change in absorption maximum wavelength) [2] [nm]	I^a/I^a0 (absorbance ratio at absorption maximum after/before lightfastness test) [3]
Cc1c(/C=N/[N-]c2nnnn2-c2ccccc2)c([O-])n(CC(C)C)c(=O)c1C#N.Cc1c(/C=N/[N-]c2nnnn2-c2ccccc2)c([O-])n(CC(C)C)c(=O)c1C#N.Cc1c(/C=N/[N-]c2nnnn2-c2ccccc2)c([O-])n(CC(C)C)c(=O)c1C#N.Cc1c(/C=N/[N-]c2nnnn2-c2ccccc2)c([O-])n(CC(C)C)c(=O)c1C#N.[Co+3].[Co+3].c1ccc2c(c1)ccc[n+]2CCCC[n+]1cccc2ccccc21 [Complex Compound (21)]	1.00	0.5	1.01	0.5	0.87
Cc1c(/C=N/[N-]c2nc3ccccc3o2)c([O-])n(Cc2ccco2)c(=O)c1C#N.Cc1c(/C=N/[N-]c2nc3ccccc3o2)c([O-])n(Cc2ccco2)c(=O)c1C#N.Cc1c(/C=N/[N-]c2nc3ccccc3o2)c([O-])n(Cc2ccco2)c(=O)c1C#N.Cc1c(/C=N/[N-]c2nc3ccccc3o2)c([O-])n(Cc2ccco2)c(=O)c1C#N.Fc1cccc(-[n+]2ccc(-c3cc[n+](-c4cccc(F)c4)cc3)cc2)c1.[Co+3].[Co+3] [Complex Compound (24)]	1.00	0.5	1.02	0.5	0.92
COc1ccc2cc3[n+](cc2c1OC)CCc1cc2c(cc1-3)OCO2.Cc1c(/C=N/[N-]c2nnnn2-c2ccccc2)c([O-])n(CC(C)C)c(=O)c1C#N.Cc1c(/C=N/[N-]c2nnnn2-c2ccccc2)c([O-])n(CC(C)C)c(=O)c1C#N.[Co+3] [Complex Compound (18)]	1.00	0	1.00	0	0.90
Cc1c(/C=N/[N-]c2nnnn2-c2ccccc2)c([O-])n(CC(C)C)c(=O)c1C#N.Cc1c(/C=N/[N-]c2nnnn2-c2ccccc2)c([O-])n(CC(C)C)c(=O)c1C#N.Cc1c(/C=N/[N-]c2nnnn2-c2ccccc2)c([O-])n(CC(C)C)c(=O)c1C#N.Cc1c(/C=N/[N-]c2nnnn2-c2ccccc2)c([O-])n(CC(C)C)c(=O)c1C#N.[Co+3].[Co+3].c1ccc2c[n+](CCCCCCCCCC[n+]3ccc4ccccc4c3)ccc2c1 [Complex Compound (16)]	1.00	0	1.01	0	0.90
Cc1c(/C=N/[N-]c2nnnn2-c2ccccc2)c([O-])n(Cc2ccccc2)c(=O)c1C#N.Cc1c(/C=N/[N-]c2nnnn2-c2ccccc2)c([O-])n(Cc2ccccc2)c(=O)c1C#N.Cc1c(/C=N/[N-]c2nnnn2-c2ccccc2)c([O-])n(Cc2ccccc2)c(=O)c1C#N.Cc1c(/C=N/[N-]c2nnnn2-c2ccccc2)c([O-])n(Cc2ccccc2)c(=O)c1C#N.[Co+3].[Co+3].c1ccc(CC[N+]23CC[N+](CCc4ccccc4)(CC2)CC3)cc1 [Complex Compound (31)]	1.00	0	1.02	0	0.85
Cc1c(/C=N/[N-]c2nc3ccccc3o2)c([O-])n(Cc2ccccc2)c(=O)c1C#N.Cc1c(/C=N/[N-]c2nc3ccccc3o2)c([O-])n(Cc2ccccc2)c(=O)c1C#N.Cc1c(/C=N/[N-]c2nc3ccccc3o2)c([O-])n(Cc2ccccc2)c(=O)c1C#N.Cc1c(/C=N/[N-]c2nc3ccccc3o2)c([O-])n(Cc2ccccc2)c(=O)c1C#N.[Co+3].[Co+3].c1cc[n+]2c(c1)-c1cccc[n+]1CCC2 [Complex Compound (33)]	1.00	0	1.01	0	0.91
Cc1ccc(-n2c([O-])c(/C=N/[N-]c3nnnn3-c3ccccc3)c(C)c(C#N)c2=O)cc1.Cc1ccc(-n2c([O-])c(/C=N/[N-]c3nnnn3-c3ccccc3)c(C)c(C#N)c2=O)cc1.Cc1ccc(-n2c([O-])c(/C=N/[N-]c3nnnn3-c3ccccc3)c(C)c(C#N)c2=O)cc1.Cc1ccc(-n2c([O-])c(/C=N/[N-]c3nnnn3-c3ccccc3)c(C)c(C#N)c2=O)cc1.[Co+3].[Co+3].c1cc[n+]2c(c1)-c1cccc[n+]1CCC2 [Complex Compound (26)]	1.00	0	1.01	0	0.88
CCn1c([O-])c(/C=N/[N-]c2ncccn2)c(C)c(C#N)c1=O.CCn1c([O-])c(/C=N/[N-]c2ncccn2)c(C)c(C#N)c1=O.CCn1c([O-])c(/C=N/[N-]c2ncccn2)c(C)c(C#N)c1=O.CCn1c([O-])c(/C=N/[N-]c2ncccn2)c(C)c(C#N)c1=O.Oc1ccc(-c2ccccc2)cc1-[n+]1ccc(-c2cc[n+](-c3cc(-c4ccccc4)ccc3O)cc2)cc1.[Co+3].[Co+3] [Complex Compound (7)]	1.00	0	1.00	0	0.99
Cc1c(/C=N/[N-]c2nnnn2-c2ccccc2)c([O-])n(CC(C)C)c(=O)c1C#N.Cc1c(/C=N/[N-]c2nnnn2-c2ccccc2)c([O-])n(CC(C)C)c(=O)c1C#N.Cc1c(/C=N/[N-]c2nnnn2-c2ccccc2)c([O-])n(CC(C)C)c(=O)c1C#N.Cc1c(/C=N/[N-]c2nnnn2-c2ccccc2)c([O-])n(CC(C)C)c(=O)c1C#N.[Co+3].[Co+3].c1ccc2c[n+](CCCCCC[n+]3ccc4ccccc4c3)ccc2c1 [Complex Compound (17)]	0.98	0	0.98	0	0.88
CCn1c([O-])c(/C=N/[N-]C(=O)c2ccc(C(F)(F)F)cc2)c(C)c(C#N)c1=O.CCn1c([O-])c(/C=N/[N-]C(=O)c2ccc(C(F)(F)F)cc2)c(C)c(C#N)c1=O.CCn1c([O-])c(/C=N/[N-]C(=O)c2ccc(C(F)(F)F)cc2)c(C)c(C#N)c1=O.CCn1c([O-])c(/C=N/[N-]C(=O)c2ccc(C(F)(F)F)cc2)c(C)c(C#N)c1=O.[Co+3].[Co+3].c1cc2ccc3ccc[n+]4c3c2[n+](c1)CCC4 [Complex Compound (10)]	1.00	0.5	1.00	0	0.99
Cc1c(/C=N/[N-]c2nnnn2-c2ccccc2)c([O-])n(CC(C)C)c(=O)c1C#N.Cc1c(/C=N/[N-]c2nnnn2-c2ccccc2)c([O-])n(CC(C)C)c(=O)c1C#N.Cc1c(/C=N/[N-]c2nnnn2-c2ccccc2)c([O-])n(CC(C)C)c(=O)c1C#N.Cc1c(/C=N/[N-]c2nnnn2-c2ccccc2)c([O-])n(CC(C)C)c(=O)c1C#N.[Co+3].[Co+3].c1cc[n+]2c(c1)-c1cccc[n+]1CCC2 [Complex Compound (14)]	1.00	0	1.01	0	0.92
